Results published in paper PMC8050276, “Estradiol analogs attenuate autophagy, cell migration and invasion by direct and selective inhibition of TRPML1, independent of estrogen receptors” (Scientific Reports, 2021).

Experiments:
[1] = system: MDA-MB-231 cells; test: Invasion assay, Matrigel-coated transwell chambers; type: cell-based, human; settings: various concentrations, 4 h and o/n
Experimental: For invasion measurements transwell chambers in 24-well permeable support plates (Corning, #3421) were coated with Corning Matrigel basement membrane matrix (Corning, #354234) for 1.5 h. A total of 4 × 104 MDA-MB-231 WT and TRPML1 KO cells were seeded on top of the chambers in serum-free medium, and direct stimulation with EDME was performed. The lower compartment contained the chemotactic gradient, medium with 10% FBS. Cells were allowed to migrate for 4 h and o/n, and were then fixed and stained with crystal violet containing methanol. Non-invaded cells were removed with Q-tips and pictures were taken of the bottom side of the membrane using an inverted microscope (Olympus CKX41) and an Olympus SC50 camera (Olympus). The number of invaded cells was quantified using ImageJ 1.52a software.

[2] = biological target: T1, TRPML1 (Homo sapiens, UniProt Q9GZU1); test: Endolysosomal patch-clamp, endo-lysosomes from MDA-MB-231 cells; type: cell-based; settings: activation with ML-SA1
T1 construct: vacuolin-enlarged endo-lysosomes isolated from WT and KO1 MDA-MB-231 cells; endogenous in cells; host or cells: MDA-MB-231
Experimental: For whole-LE/LY manual patch-clamp recordings, cells were treated with 1 μM vacuolin-1 (> 2 h) at 37 °C and 5% CO2 and experiments performed as described previously[19],[25]. Compound was washed out before patch-clamp experimentation. Currents were recorded using an EPC-10 patch-clamp amplifier (HEKA, Lambrecht, Germany) and PatchMaster acquisition software (https://www.heka.com/). Data were digitized at 40 kHz and filtered at 2.8 kHz. Fast and slow capacitive transients were cancelled by the compensation circuit of the EPC-10 amplifier. All recordings were obtained at room temperature and were analyzed using PatchMaster acquisition software (https://www.heka.com/) and OriginPro 6.1 (https://www.originlab.com/). […] For all experiments, salt-agar bridges were used to connect the reference Ag–AgCl wire to the bath solution to minimize voltage offsets. Liquid junction potential was corrected. For the application of the small molecule inhibitors/flavonoids, cytoplasmic solution was completely exchanged by cytoplasmic solution containing compound. The current amplitudes at − 100 mV were extracted from individual ramp current recordings. Unless otherwise stated, cytoplasmic solution contained 140 mM K-MSA, 5 mM KOH, 4 mM NaCl, 0.39 mM CaCl2, 1 mM EGTA and 10 mM HEPES (pH was adjusted with KOH to 7.2). […]

T1 sequence (Q9GZU1 whole entry): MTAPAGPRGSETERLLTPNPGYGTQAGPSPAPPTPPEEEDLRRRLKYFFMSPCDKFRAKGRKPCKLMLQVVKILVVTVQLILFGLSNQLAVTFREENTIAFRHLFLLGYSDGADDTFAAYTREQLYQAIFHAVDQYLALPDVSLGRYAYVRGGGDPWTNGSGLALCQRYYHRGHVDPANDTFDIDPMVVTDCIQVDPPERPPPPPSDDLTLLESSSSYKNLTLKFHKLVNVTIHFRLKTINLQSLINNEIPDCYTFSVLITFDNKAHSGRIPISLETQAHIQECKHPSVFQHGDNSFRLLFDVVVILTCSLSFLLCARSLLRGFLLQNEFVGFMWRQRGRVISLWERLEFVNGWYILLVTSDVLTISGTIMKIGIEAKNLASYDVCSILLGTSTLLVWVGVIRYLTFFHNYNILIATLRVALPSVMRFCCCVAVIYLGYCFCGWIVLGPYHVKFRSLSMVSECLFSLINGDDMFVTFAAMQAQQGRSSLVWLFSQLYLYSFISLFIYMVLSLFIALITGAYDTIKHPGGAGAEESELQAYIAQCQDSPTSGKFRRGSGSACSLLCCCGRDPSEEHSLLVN

COc1ccc2c(c1)CC[C@@H]1[C@@H]2CC[C@]2(C)[C@@H](O)CC[C@@H]12 [EDME, 17β-estradiol methyl ether]
invasion of MDA-MB-231 cells [1]: significantly reduced | inhibition of TRPML1 activation in MDA-MB-231 endo-lysosomes [2]: inhibits TRPML1 activation
